Measurements as given in ChEMBL document CHEMBL5346927, “Discovery of a novel 1H-pyrazole- [3,4-b] pyridine-based lysine demethylase 5B inhibitor with potential anti-prostate cancer activity that perturbs the phosphoinositide 3-kinase/AKT pathway” (Eur J Med Chem, 2023).
Activity calls are given as the source filed them. No cut-off for these calls is given here.

Experiments:
[1] = biological target: T1, Lysine-specific demethylase 5B (Homo sapiens, UniProt Q9UGL1); assay: Inhibition of KDM5B (unknown origin) at 10 uM relative to control
MCF7 = assay: Antitumor activity against human MCF7 cells assessed as inhibition of cell proliferation incubated for 72 hrs by MTT assay; assay type: functional, cell-based; settings: MCF7, 72 h
HepG2 = assay: Antitumor activity against human HepG2 cells assessed as inhibition of cell proliferation incubated for 72 hrs by MTT assay; assay type: functional, cell-based; settings: HepG2, 72 h
LNCaP [2] = assay: Antiproliferative activity against human LNCaP cells assessed as inhibition of cell proliferation incubated for 72 hrs by MTT assay; assay type: functional, cell-based
DU-145 = assay: Antiproliferative activity against human DU-145 cells assessed as inhibition of cell proliferation incubated for 72 hrs by MTT assay; assay type: functional, cell-based; settings: DU-145, 72 h
[3] = Tmax in ICR mouse at 25 mg/kg, IG measured at 0.083 to 24 hrs by LC-MS analysis; assay type: ADME, organism-based; settings: in vivo, po, time 0.083-24 hrs
[4] = Half-life in ICR mouse at 25 mg/kg, IG measured at 0.083 to 24 hrs by LC-MS analysis; assay type: ADME, organism-based; settings: in vivo, po, time 0.083-24 hrs
[5] = biological target: T1, Lysine-specific demethylase 5B; assay: Inhibition of KDM5B in human PC-3 cells assessed as H3K4me1 accumulation incubated for 72 hrs by Western blot analysis; assay type: cell-based
[6] = biological target: T1, Lysine-specific demethylase 5B; assay: Inhibition of KDM5B in human PC-3 cells assessed as H3K4me2 accumulation incubated for 72 hrs by Western blot analysis; assay type: cell-based
PC-3 [7] = assay: Inhibition of colony formation in human PC-3 cells incubated for 72 hrs by crystal violet staining based microplate reader analysis; assay type: functional, cell-based; settings: dose 1.25-5 µM
LNCaP [8] = assay: Inhibition of colony formation in human LNCaP cells incubated for 72 hrs by crystal violet staining based microplate reader analysis; assay type: functional, cell-based
LNCaP [9] = assay: Induction of cell cycle arrest in human LNCaP cells assessed as accumulation of cells at G2/M phase at 5 micromol/L incubated for 48 hrs by PI/RNaseA staining based flow cytometric analysis; assay type: functional; settings: dose 5.0 µmol/L
PC-3 [10] = assay: Induction of apoptosis in human PC-3 cells assessed as viable cells at 2.5 uM incubated for 72 hrs by Annexin V-FITC/PI staining based flow cytometric analysis (reference value: 90.93%); assay type: functional; settings: read-out: Activity
PC-3 [11] = assay: Induction of apoptosis in human PC-3 cells assessed as late apoptotic cells at 2.5 uM incubated for 72 hrs by Annexin V-FITC/PI staining based flow cytometric analysis (reference value: 1.05%); assay type: functional
PC-3 [12] = assay: Induction of apoptosis in human PC-3 cells assessed as viable cells at 5 uM incubated for 72 hrs by Annexin V-FITC/PI staining based flow cytometric analysis (reference value: 90.93%); assay type: functional; settings: read-out: Activity
PC-3 [13] = assay: Induction of apoptosis in human PC-3 cells assessed as early apoptotic cells at 5 uM incubated for 72 hrs by Annexin V-FITC/PI staining based flow cytometric analysis (reference value: 3.01%); assay type: functional
PC-3 [14] = assay: Induction of apoptosis in human PC-3 cells assessed as viable cells at 10 uM incubated for 72 hrs by Annexin V-FITC/PI staining based flow cytometric analysis (reference value: 90.93%); assay type: functional; settings: read-out: Activity
PC-3 [15] = assay: Induction of apoptosis in human PC-3 cells assessed as early apoptotic cells at 10 uM incubated for 72 hrs by Annexin V-FITC/PI staining based flow cytometric analysis (reference value: 3.01%); assay type: functional
PC-3 [16] = assay: Induction of apoptosis in human PC-3 cells assessed as late apoptotic cells at 10 uM incubated for 72 hrs by Annexin V-FITC/PI staining based flow cytometric analysis (reference value: 1.05%); assay type: functional
[17] = Oral bioavailability in ICR mouse at 25 mg/kg measured at 0.083 to 24 hrs by LC-MS analysis; assay type: ADME, organism-based; settings: in vivo, time 0.083-24 hrs
[18] = AUC (0 to t) in ICR mouse at 5 mg/kg, iv measured at 0.083 to 24 hrs by LC-MS analysis; assay type: ADME, organism-based; set-up: time lower 0.083 hrs, dose 5 mg/kg, time upper 24 hrs, route iv; settings: in vivo
[19] = Clearance in ICR mouse at 5 mg/kg, iv measured at 0.083 to 24 hrs by LC-MS analysis; assay type: ADME, organism-based; settings: in vivo, time 0.083-24 hrs
[20] = Acute toxicity in Kunming mouse assessed as effect on survival at 2 g/Kg, IG measured after 2 weeks; settings: in vivo, po, 2000 mg/kg, 336 h
[21] = Acute toxicity in Kunming mouse assessed as effect on weight at 2 g/Kg, IG measured after 2 weeks; settings: in vivo, po, 2000 mg/kg, 336 h
[22] = Acute toxicity in Kunming mouse assessed as effect on behavioral abnormalities at 2 g/Kg, IG measured after 2 weeks; settings: in vivo, po, 2000 mg/kg, 336 h
[23] = Acute toxicity in Kunming mouse assessed as effect on spleen at 2 g/Kg, IG measured after 2 weeks by H&E staining based analysis; assay type: tissue-based; settings: in vivo, po, 2000 mg/kg, 336 h
[24] = Acute toxicity in Kunming mouse assessed as effect on kidney at 2 g/Kg, IG measured after 2 weeks by H&E staining based analysis; assay type: tissue-based; settings: in vivo, po, 2000 mg/kg, 336 h
[25] = Acute toxicity in Kunming mouse assessed as prostate gland damage at 2 g/Kg, IG measured after 2 weeks by H&E staining based analysis; assay type: tissue-based; settings: in vivo, po, 2000 mg/kg, 336 h
PC-3 [26] = assay: Antitumor activity against human PC-3 cells xenografted in BALB/C nude mice assessed as decrease in tumor weight at 25 to 50 mg/kg, IG administered for 25 days; assay type: functional, organism-based; settings: dose 25-50 mg/kg, time 25.0 day
[27] = Toxicity in BALB/C nude mouse xenografted with human PC-3 cells assessed as effect on body weight at 25 to 50 mg/kg, IG administered for 25 days; assay type: organism-based; settings: in vivo, po, 600 h, dose 25-50 mg/kg, time 25 day
[28] = Toxicity in BALB/C nude mouse xenografted with human PC-3 cells assessed as liver damage at 25 to 50 mg/kg, IG administered for 25 days by H&E staining based analysis; assay type: organism-based; settings: in vivo, po, 600 h, dose 25-50 mg/kg, time 25 day
[29] = Toxicity in BALB/C nude mouse xenografted with human PC-3 cells assessed as spleen damage at 25 to 50 mg/kg, IG administered for 25 days by H&E staining based analysis; assay type: organism-based; settings: in vivo, po, 600 h, dose 25-50 mg/kg, time 25 day
[30] = Toxicity in BALB/C nude mouse xenografted with human PC-3 cells assessed as indistinct prostate tube wall at 25 mg/kg, IG administered for 25 days by H&E staining based analysis; assay type: organism-based; settings: in vivo, po, 600 h, time 25 day
[31] = Toxicity in BALB/C nude mouse xenografted with human PC-3 cells assessed as prostate gland damage at 25 to 50 mg/kg, IG administered for 25 days by H&E staining based analysis; assay type: organism-based; settings: in vivo, po, 600 h, dose 25-50 mg/kg, time 25 day
PC-3 [32] = assay: Inhibition of PI3K/AKT pathway in human PC-3 cells assessed as decrease in P110alpha level at 20 uM by Western blot analysis relative to control; assay type: cell-based
PC-3 [33] = assay: Inhibition of PI3K/AKT pathway in human PC-3 cells assessed as decrease in P85 level at 10 to 20 uM by Western blot analysis; assay type: cell-based; settings: dose 10-20 µM
PC-3 [34] = assay: Inhibition of PI3K/AKT pathway in human PC-3 cells assessed as decrease in AKT phosphorylation at Ser473 residue at 2.5 to 10 uM by Western blot analysis; assay type: cell-based; settings: dose 2.5-10 µM

T1 sequence (Q9UGL1 whole entry): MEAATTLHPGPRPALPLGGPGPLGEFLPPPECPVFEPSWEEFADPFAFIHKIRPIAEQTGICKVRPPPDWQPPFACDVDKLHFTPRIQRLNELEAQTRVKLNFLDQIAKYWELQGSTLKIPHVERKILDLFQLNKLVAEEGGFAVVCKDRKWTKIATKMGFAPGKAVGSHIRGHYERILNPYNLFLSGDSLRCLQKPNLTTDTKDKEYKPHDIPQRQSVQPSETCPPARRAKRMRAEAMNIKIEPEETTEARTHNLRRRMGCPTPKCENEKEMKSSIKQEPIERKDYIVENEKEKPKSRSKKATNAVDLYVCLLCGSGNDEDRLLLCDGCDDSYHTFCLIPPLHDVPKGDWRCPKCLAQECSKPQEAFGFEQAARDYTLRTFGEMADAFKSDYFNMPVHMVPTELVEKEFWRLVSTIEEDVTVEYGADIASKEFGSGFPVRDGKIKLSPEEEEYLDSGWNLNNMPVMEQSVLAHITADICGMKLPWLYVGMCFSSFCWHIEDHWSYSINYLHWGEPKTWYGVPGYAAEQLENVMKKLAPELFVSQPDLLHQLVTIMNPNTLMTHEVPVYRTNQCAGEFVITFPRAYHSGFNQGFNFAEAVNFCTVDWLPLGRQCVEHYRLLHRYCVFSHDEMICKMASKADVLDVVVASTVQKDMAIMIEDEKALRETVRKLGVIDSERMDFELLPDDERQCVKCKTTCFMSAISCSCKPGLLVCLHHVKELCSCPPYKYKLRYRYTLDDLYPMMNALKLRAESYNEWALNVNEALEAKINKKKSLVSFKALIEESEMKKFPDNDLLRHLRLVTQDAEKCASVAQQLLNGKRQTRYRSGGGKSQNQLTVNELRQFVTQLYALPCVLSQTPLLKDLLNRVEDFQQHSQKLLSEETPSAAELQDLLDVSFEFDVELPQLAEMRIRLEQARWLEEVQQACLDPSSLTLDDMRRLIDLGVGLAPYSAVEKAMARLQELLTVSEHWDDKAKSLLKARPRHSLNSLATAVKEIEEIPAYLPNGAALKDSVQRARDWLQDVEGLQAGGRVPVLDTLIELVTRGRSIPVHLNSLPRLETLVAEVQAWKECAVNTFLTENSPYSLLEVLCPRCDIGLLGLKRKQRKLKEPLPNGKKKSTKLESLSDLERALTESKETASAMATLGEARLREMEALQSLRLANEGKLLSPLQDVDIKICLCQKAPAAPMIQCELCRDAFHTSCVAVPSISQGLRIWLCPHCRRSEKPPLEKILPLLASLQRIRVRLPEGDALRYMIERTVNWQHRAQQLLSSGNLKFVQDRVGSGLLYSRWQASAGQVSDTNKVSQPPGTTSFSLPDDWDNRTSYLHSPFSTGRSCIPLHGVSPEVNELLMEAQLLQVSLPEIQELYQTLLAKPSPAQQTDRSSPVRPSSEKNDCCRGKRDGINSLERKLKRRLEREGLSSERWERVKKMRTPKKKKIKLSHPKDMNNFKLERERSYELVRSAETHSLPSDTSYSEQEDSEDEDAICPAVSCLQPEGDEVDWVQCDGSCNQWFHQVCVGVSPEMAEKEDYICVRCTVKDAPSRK

## CN1CCN(CCNC(=O)c2cc(-c3ccc4ccccc4c3)nc3c2cnn3-c2ccccc2)CC1
[1]
  inhibition: 102%
MCF7
  IC50: 6.77 µM
HepG2
  IC50: 5.76 µM
LNCaP [2]
  IC50: 4.34 µM
DU-145
  IC50: 9.53 µM
[3]
  Tmax: 6 h
[4]
  half-life: 5.3 h
[5]
  inhibition: Dose-Dependent Effect
[6]
  inhibition: Dose-Dependent Effect
PC-3 [7]
  inhibition: Dose-Dependent Effect
LNCaP [8]
  inhibition: Dose-Dependent Effect
LNCaP [9]
  Activity: inactive
PC-3 [10]
  viability at 2.5 µM: 75%
PC-3 [11]
  Activity: 5.94%
PC-3 [12]
  viability at 5 µM: 73%
PC-3 [13]
  Activity: 0.64%
PC-3 [14]
  viability at 10 µM: 58.8%
PC-3 [15]
  Activity: 0.81%
PC-3 [16]
  Activity: 16.39%
[17]
  F: 20.28%
[18]
  AUCt: 44.43767 µg·h/mL
[19]
  CL: 0.49 L/h/kg
[20]
  Activity: Non-Toxic
[21]
  Activity: Non-Toxic
[22]
  Activity: Non-Toxic
[23]
  Activity: Non-Toxic
[24]
  Activity: Non-Toxic
[25]
  Activity: Non-Toxic
PC-3 [26]
  Activity: Active
[27]
  Activity: Non-Toxic
[28]
  Activity: Non-Toxic
[29]
  Activity: Non-Toxic
[30]
  Activity: Non-Toxic
[31]
  Activity: Non-Toxic
PC-3 [32]
  inhibition: 80%
PC-3 [33]
  inhibition: Active
PC-3 [34]
  inhibition: inactive
